Reference: patent US8552004B2, “Chemical compounds” (AstraZeneca AB, priority 2010, dated 2013)
pIC50: −log10 of the molar value. Values joined by “and” are separate entries in the source; they are usually repeats but may differ in a detail not shown here. Equal entries are not always repeated.

Tests used:
[1] = tested on: HT29 cells; test: Cellular SRB assay, potentiation of carboplatin (Test (c)); assay type: cell-based, human; settings: HT29 cell growth, Carboplatin alone, 5 days, SRB
Experimental: (c) Cellular—SRB Assay The potentiation factor (PF50) for compounds is a measure of the fold increase in effect of a chemotherapeutic agent, when used in combination with an ATR inhibitor. Specifically, this is calculated as a ratio of the IC50 of control cell growth in the presence of a chemotherapeutic agent, typically carboplatin, divided by the IC50 of cell growth in the presence of this agent and the ATR inhibitor of interest. For this purpose, HT29 cells were seeded at the appropriate density to ensure exponential growth throughout the time of the assay (typically 1000-1500 cells) in each well of a 96-well plate, in a volume of 80 μl and incubated overnight at 37° C. Subsequently, cells were dosed with either DMSO vehicle, or treated with test compounds at fixed concentrations (typically 1, 0.3 & 0.1 μM). Following a one hour incubation at 37° C., the cells were further treated with a 10 point dose response of the chemotherapeutic agent, based on it's known sensitivity (typically 30-0.001 ug/ml for carboplatin). Cells were left to grow for 5 days at 37° C., after which time cell growth was assessed using the sulforhodamine B (SRB) assay (Skehan, P et al, 1990 New colorimetric cytotoxic assay for anticancer-drug screening. J. Natl. Cancer Inst. 82, 1107-1112.). Specifically, the media was removed and cells fixed with 100 μl of ice cold 10% (w/v) trichloroacetic acid. The plates were then incubated at 4° C. for 20 minutes prior to washing 4 times with water. Each well was then stained with 100 μL of 0.4% (w/v) SRB in 1% acetic acid for 20 minutes before a further 4 washes with 1% acetic acid. Plates were then dried for 2 hours at room temperature and the dye was solubilized by the addition of 100 μL Tris Base pH 8.5 into each well. Plates were shaken before measuring optical density at 564 nm (OD564). In order to calculate the PF50, the OD564 values obtained for the dose-response curve of chemotherapeutic agent were expressed as a percentage of the value obtained from cells treated with vehicle alone. Similarly, to act as a control for inclusion of the ATR inhibitor, values from the chemotherapeutic agent tested in combination with a fixed ATR inhibitor concentration were expressed as a percentage of the value obtained from cells treated with the corresponding concentration of ATR inhibitor alone. From these internally-controlled curves, IC50 values were calculated and the PF50 was determined as the ratio of these values, as described above. Compounds are compared using the PF50 value at concentrations of ATR inhibitor that show minimal growth inhibition on their own. IC50 values were calculated with XLfit (IDBS, Surrey UK) using the dose response, 4 parameter logistic model #203. Top (max) and bottom (min) curve fitting was free and not locked to 100% to 0% respectively.

[2] = molecular target: ATR (Homo sapiens (Human), UniProt Q13535); test: Cellular Assay - ATR, phosphorylation of Chk1 (Ser 345) in HT29 cells after 4NQO (Test (b)); assay type: cell-based; settings: cell assay Test (b); pChk1 Ser345 in HT29 cells, 3 μM 4NQO; arithmetic mean
Text: ATM and ATR have distinct and overlapping responses to DNA damage. They must participate together and responses must be co-ordinated. Both pathways may be activated by ionising radiation, however only ATR is activated by UV. Since UV treatment is not practical for use in a high throughput cell assay, the UV mimetic 4NQ0 (Sigma) was chosen to activate the ATR DNA damage response pathway.
Chk1, a downstream protein kinase of ATR, plays a key role in DNA damage checkpoint control. Activation of Chk1 involves phosphorylation of Ser317 and Ser345 (regarded as the preferential target for phosphorylation/activation by ATR). […] Compounds dose ranges were created by diluting in 100% DMSO and then further into assay media (EMEM, 10% FCS, 1% glutamine) using a Labcyte Echo Acoustic dispensing instrument. Cells were plated in 384 well Costar plates at 9×10^4 cells per ml in 40 μL EMEM, 10% FCS, 1% glutamine and grown for 24 hrs. Following addition of compound the cells were incubated for 60 minutes. A final concentration of 3 μM 4NQ0 (prepared in 100% DMSO) was then added using the Labcyte Echo and the cells incubated for a further 60mins. The cells are then fixed by adding 40 μL 3.7% v/v formaldehyde solution for 20 minutes. After removal of fix, cells were washed with PBS and permeabilised in 40 μL of PBS containing 0.1% Triton™ X-100. Cells are then washed and 15 μl primary antibody solution (pChk1 Ser345) added and the plates incubated at 4° C. overnight. […] The plates are washed and left in 40 μl PBS. Plates were then read on an ArrayS can Vti instrument to determine staining intensities, and dose responses were obtained and used to determine the IC50 values for the compounds.

Sequence of ATR (Q13535 whole entry): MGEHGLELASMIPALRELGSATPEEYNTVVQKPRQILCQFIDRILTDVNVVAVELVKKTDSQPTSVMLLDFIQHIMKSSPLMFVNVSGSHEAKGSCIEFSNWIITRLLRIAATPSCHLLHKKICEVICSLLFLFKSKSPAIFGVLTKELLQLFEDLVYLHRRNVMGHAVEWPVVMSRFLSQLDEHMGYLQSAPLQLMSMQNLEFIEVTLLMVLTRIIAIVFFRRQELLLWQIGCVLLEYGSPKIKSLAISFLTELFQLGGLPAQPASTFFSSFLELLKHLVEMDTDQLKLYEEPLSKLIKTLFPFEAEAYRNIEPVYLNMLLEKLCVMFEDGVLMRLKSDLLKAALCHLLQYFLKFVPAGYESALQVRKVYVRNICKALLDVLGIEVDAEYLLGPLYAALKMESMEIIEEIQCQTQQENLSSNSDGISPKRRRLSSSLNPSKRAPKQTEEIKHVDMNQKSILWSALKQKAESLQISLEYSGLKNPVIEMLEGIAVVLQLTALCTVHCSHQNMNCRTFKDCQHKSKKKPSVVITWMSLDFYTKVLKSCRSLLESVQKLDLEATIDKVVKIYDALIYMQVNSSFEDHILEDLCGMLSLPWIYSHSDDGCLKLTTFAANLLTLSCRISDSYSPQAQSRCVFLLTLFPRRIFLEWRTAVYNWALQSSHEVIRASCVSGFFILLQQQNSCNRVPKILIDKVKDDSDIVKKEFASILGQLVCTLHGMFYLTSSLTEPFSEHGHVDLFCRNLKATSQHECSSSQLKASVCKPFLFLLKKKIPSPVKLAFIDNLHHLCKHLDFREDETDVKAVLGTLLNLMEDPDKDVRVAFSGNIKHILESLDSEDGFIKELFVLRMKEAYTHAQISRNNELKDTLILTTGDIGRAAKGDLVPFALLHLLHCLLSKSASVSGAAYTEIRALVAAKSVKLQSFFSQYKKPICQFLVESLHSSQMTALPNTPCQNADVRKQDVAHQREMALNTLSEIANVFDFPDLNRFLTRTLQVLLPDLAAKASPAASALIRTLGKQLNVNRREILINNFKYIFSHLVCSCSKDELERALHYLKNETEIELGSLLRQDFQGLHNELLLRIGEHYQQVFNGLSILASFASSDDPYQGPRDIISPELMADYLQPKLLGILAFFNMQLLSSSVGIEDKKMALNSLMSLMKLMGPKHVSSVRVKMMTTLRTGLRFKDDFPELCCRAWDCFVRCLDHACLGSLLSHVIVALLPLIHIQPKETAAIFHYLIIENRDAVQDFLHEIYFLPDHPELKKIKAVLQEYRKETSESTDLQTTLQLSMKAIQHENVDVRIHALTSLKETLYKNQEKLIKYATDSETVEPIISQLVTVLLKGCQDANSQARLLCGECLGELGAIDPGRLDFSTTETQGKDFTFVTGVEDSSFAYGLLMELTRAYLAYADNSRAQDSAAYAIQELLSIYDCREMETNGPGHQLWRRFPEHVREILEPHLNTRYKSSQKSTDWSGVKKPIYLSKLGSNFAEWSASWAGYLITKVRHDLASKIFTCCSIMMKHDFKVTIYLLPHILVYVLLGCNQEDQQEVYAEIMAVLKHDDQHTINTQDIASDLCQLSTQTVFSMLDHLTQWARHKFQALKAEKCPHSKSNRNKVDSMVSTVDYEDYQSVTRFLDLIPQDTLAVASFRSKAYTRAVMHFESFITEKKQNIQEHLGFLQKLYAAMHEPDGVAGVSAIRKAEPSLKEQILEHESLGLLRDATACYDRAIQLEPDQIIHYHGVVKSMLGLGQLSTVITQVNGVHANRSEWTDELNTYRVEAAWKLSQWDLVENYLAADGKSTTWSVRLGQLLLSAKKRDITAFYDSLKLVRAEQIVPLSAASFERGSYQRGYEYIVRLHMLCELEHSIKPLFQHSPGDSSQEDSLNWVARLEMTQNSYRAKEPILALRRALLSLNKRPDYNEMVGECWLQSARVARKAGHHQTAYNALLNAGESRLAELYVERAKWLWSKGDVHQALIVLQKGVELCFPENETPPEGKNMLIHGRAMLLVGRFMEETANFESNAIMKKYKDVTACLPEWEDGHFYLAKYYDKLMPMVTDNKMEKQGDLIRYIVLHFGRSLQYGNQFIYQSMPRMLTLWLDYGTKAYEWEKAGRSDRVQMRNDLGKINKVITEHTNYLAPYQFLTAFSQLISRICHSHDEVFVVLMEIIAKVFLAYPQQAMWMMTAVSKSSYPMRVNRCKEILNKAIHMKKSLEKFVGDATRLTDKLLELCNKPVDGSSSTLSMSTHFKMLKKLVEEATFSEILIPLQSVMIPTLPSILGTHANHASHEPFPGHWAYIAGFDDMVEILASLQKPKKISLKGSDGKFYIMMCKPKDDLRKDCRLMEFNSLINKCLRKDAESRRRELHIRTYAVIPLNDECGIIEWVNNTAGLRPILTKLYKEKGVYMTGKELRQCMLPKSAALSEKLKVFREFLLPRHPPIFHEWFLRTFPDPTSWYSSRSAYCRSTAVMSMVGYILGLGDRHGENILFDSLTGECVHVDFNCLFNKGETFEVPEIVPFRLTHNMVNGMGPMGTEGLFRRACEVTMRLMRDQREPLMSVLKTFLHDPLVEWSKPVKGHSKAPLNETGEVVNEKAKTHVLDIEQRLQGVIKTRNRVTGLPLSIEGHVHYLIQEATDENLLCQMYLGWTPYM
Sequence of ATR (Q8WXE1 whole entry partner): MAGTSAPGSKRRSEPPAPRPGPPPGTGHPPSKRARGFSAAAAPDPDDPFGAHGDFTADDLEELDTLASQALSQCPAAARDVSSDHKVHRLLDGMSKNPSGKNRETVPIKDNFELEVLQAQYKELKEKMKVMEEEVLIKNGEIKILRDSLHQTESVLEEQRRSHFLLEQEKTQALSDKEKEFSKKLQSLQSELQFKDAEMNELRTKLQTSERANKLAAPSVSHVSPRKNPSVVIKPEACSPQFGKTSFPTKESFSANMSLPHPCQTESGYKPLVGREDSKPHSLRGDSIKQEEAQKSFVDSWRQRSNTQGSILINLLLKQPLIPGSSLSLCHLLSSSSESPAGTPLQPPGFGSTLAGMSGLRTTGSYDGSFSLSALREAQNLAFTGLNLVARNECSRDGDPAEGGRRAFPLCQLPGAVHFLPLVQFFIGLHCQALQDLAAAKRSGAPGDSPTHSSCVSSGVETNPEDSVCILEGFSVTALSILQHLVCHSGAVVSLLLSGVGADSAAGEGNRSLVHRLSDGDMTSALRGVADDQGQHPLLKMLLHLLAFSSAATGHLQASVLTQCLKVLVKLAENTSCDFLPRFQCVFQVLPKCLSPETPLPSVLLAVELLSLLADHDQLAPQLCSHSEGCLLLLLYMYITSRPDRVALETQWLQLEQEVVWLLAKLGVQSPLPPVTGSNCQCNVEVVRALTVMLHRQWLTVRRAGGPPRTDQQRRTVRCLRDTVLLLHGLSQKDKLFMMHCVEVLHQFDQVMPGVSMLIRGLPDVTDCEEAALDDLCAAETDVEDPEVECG

Structure (SMILES) | IC50 [1] | pIC50 [2]
N.N.O=C([O-])C1(C(=O)[O-])CCC1.[Pt+2] [Carboplatin, reference compound] | 12.519 µg/mL and 11.798 µg/mL | –
C[C@@H]1COCCN1c1cc(C2([S@](C)(=N)=O)CC2)nc(-c2cccc3[nH]ccc23)n1 [Example 2.05, 4-{4-[(3R)-3-Methylmorpholin-4-yl]-6-[1-((R)—S-methylsulfonimidoyl)cyclopropyl]pyrimidin-2-yl}-1H-indole] | – | 7.12
C[C@@H]1COCCN1c1cc(C2([S@@](C)(=N)=O)CC2)nc(-c2cccc3[nH]ccc23)n1 [Example 2.06, 4-{4-[(3R)-3-methylmorpholin-4-yl]-6-[1-((S)—S-methylsulfonimidoyl)cyclopropyl]pyrimidin-2-yl}-1H-indole] | – | 7.89
C[C@@H]1COCCN1c1cc(C2([S@](C)(=N)=O)CC2)nc(-n2c(N)nc3ccccc32)n1 [Example 2.07, 1-{4-[(3R)-3-Methylmorpholin-4-yl]-6-[1-((R)—S-methylsulfonimidoyl)cyclopropyl]pyrimidin-2-yl}-1H-benzimidazol-2-amine] | – | 8.59
C[C@@H]1COCCN1c1cc(C2([S@@](C)(=N)=O)CC2)nc(-n2c(N)nc3ccccc32)n1 [Example 2.08, 1-{4-[(3R)-3-methylmorpholin-4-yl]-6-[1-((S)—S-methylsulfonimidoyl)cyclopropyl]pyrimidin-2-yl}-1H-benzimidazol-2-amine] | – | 8.56
CNc1nc2c(F)cccc2n1-c1nc(N2CCOC[C@H]2C)cc(C2([S@](C)(=N)=O)CC2)n1 [Example 2.09, 4-Fluoro-N-methyl-1-{4-[(3R)-3-methylmorpholin-4-yl]-6-[1-((R)—S-methylsulfonimidoyl)cyclopropyl]pyrimidin-2-yl}-1H-benzimidazol-2-amine] | – | 6.80
CNc1nc2c(F)cccc2n1-c1nc(N2CCOC[C@H]2C)cc(C2([S@@](C)(=N)=O)CC2)n1 [Example 2.10, 4-fluoro-N-methyl-{4-[(3R)-3-methylmorpholin-4-yl]-6-[1-((S)—S-methylsulfonimidoyl)cyclopropyl]pyrimidin-2-yl}-1H-benzimidazol-2-amine] | – | 6.96
CNc1nc2ccccc2n1-c1nc(N2CCOC[C@H]2C)cc(C(C)(C)[S@@](C)(=N)=O)n1 [Example 3.01, N-methyl-1-{4-[1-methyl-1-((S)—S-methylsulfonimidoyl)ethyl]-6-[(3R)-3-methylmorpholin-4-yl]pyrimidin-2-yl}-1H-benzimidazol-2-amine] | – | 7.89
CNc1nc2ccccc2n1-c1nc(N2CCOC[C@H]2C)cc(C(C)(C)[S@](C)(=N)=O)n1 [Example 3.02, N-methyl-1-{4-[1-methyl-1-((R)—S-methylsulfonimidoyl)ethyl]-6-[(3R)-3-methylmorpholin-4-yl]pyrimidin-2-yl}-1H-benzimidazol-2-amine] | – | 8.07
CNc1nc2ccccc2n1-c1nc(N2CCOC[C@H]2C)cc(C2([S@@](C)(=N)=O)CCOCC2)n1 [Example 4.01, N-Methyl-1-{4-[(3R)-3-methylmorpholin-4-yl]-6-[4-((S)—S-methylsulfonimidoyl)tetrahydro-2H-pyran-4-yl]pyrimidin-2-yl}-1H-benzimidazol-2-amine] | – | 7.27
CNc1nc2ccccc2n1-c1nc(N2CCOC[C@H]2C)cc(C2([S@](C)(=N)=O)CCOCC2)n1 [Example 4.02, N-methyl-1-{4-[(3R)-3-methylmorpholin-4-yl]-6-[4-((R)—S-methylsulfonimidoyl)tetrahydro-2H-pyran-4-yl]pyrimidin-2-yl}-1H-benzimidazol-2-amine] | – | 7.40
C[C@@H]1COCCN1c1cc(C2([S@@](C)(=N)=O)CCOCC2)nc(-c2cccc3[nH]ccc23)n1 [Example 4.03] | – | 7.29
CNc1nc2c(F)cccc2n1-c1nc(N2CCOC[C@H]2C)cc(C(C)(C)[S@@](C)(=N)=O)n1 [Example 5.01, 4-Fluoro-N-methyl-1-{4-[1-methyl-1-((S)—S-methylsulfonimidoyl)ethyl]-6-[(3R)-3-methylmorpholin-4-yl]pyrimidin-2-yl}-1H-benzimidazol-2-amine] | – | 7.20
CNc1nc2c(F)cccc2n1-c1nc(N2CCOC[C@H]2C)cc(C(C)(C)[S@](C)(=N)=O)n1 [Example 5.02, 4-fluoro-N-methyl-1-{4-[1-methyl-1-((R)—S-methylsulfonimidoyl)ethyl]-6-[(3R)-3-methylmorpholin-4-yl]pyrimidin-2-yl}-1H-benzimidazol-2-amine] | – | 7.15
CNc1nc2ccc(F)cc2n1-c1nc(N2CCOC[C@H]2C)cc(C(C)(C)[S@](C)(=N)=O)n1 [Example 5.03, 6-Fluoro-N-methyl-1-{4-[1-methyl-1-((R)—S-methylsulfonimidoyl)ethyl]-6-[(3R)-3-methylmorpholin-4-yl]pyrimidin-2-yl}-1H-benzimidazol-2-amine] | – | 7.48
CNc1nc2cc(F)ccc2n1-c1nc(N2CCOC[C@H]2C)cc(C(C)(C)[S@](C)(=N)=O)n1 [Example 5.04, 5-Fluoro-N-methyl-1-{4-[1-methyl-1-((R)—S-methylsulfonimidoyl)ethyl]-6-[(3R)-3-methylmorpholin-4-yl]pyrimidin-2-yl}-1H-benzimidazol-2-amine] | – | 7.79
CNc1nc2cc(F)ccc2n1-c1nc(N2CCOC[C@H]2C)cc(C(C)(C)[S@@](C)(=N)=O)n1 [Example 5.05, 5-Fluoro-N-methyl-1-{4-[1-methyl-1-((S)—S-methylsulfonimidoyl)ethyl]-6-[(3R)-3-methylmorpholin-4-yl]pyrimidin-2-yl}-1H-benzimidazol-2-amine] | – | 7.74
CNc1nc2ccc(F)cc2n1-c1nc(N2CCOC[C@H]2C)cc(C(C)(C)[S@@](C)(=N)=O)n1 [Example 5.06, 6-fluoro-N-methyl-1-{4-[1-methyl-1-((S)—S-methylsulfonimidoyl)ethyl]-6-[(3R)-3-methylmorpholin-4-yl]pyrimidin-2-yl}-1H-benzimidazol-2-amine] | – | 7.35
CNc1nc2ccc(F)cc2n1-c1nc(N2CCOC[C@H]2C)cc(C2([S@](C)(=N)=O)CC2)n1 [Example 5.07, 6-Fluoro-N-methyl-1-{4-[(3R)-3-methylmorpholin-4-yl]-6-[1-((R)—S-methylsulfonimidoyl)cyclopropyl]pyrimidin-2-yl}-1H-benzimidazol-2-amine] | – | 7.54
CNc1nc2cc(F)ccc2n1-c1nc(N2CCOC[C@H]2C)cc(C2([S@](C)(=N)=O)CC2)n1 [Example 5.08, 5-fluoro-N-methyl-1-{4-[(3R)-3-methylmorpholin-4-yl]-6-[1-((R)—S-methylsulfonimidoyl)cyclopropyl]pyrimidin-2-yl}-1H-benzimidazol-2-amine] | – | 8.00
CNc1nc2cc(F)ccc2n1-c1nc(N2CCOC[C@H]2C)cc(C2([S@@](C)(=N)=O)CC2)n1 [Example 5.09, 5-fluoro-N-methyl-1-{4-[(3R)-3-methylmorpholin-4-yl]-6-[1-((S)—S-methylsulfonimidoyl)cyclopropyl]pyrimidin-2-yl}-1H-benzimidazol-2-amine] | – | 7.75
CNc1nc2ccc(F)cc2n1-c1nc(N2CCOC[C@H]2C)cc(C2([S@@](C)(=N)=O)CC2)n1 [Example 5.10, 6-fluoro-N-methyl-1-{4-[(3R)-3-methylmorpholin-4-yl]-6-[1-((S)—S-methylsulfonimidoyl)cyclopropyl]pyrimidin-2-yl}-1H-benzimidazol-2-amine] | – | 7.33
